14 compounds from patent US8653048B2 (Sanlugen Pharmatech Ltd., priority 2009, dated 2014) can be followed below.

Data set [1] deals with Bel7402: a human liver cancer cell line. Put plainly: MTT analytical method, Bel7402 cells. The following applies: Bel-7402, 72 h. It counts as cell-based. The text has this:
(§1) MTT analytical method was used to test the prodrugs for various tumor cells.
(§2) • 1) Cell lines: NCI-H460, A549, LOVO, HT-29, MDA-MB-231, SGC7901, HepG2 or BEL-7402 cell lines. Culture: adherent culturing in D-MEM (Hyclone, Inc.) containing 10% fetal calf serum. The initial cell concentration was about 3×10^5 /mL. The cell was passaged by 1:3 dilution in every 2-3 days. On the day before the test, the cell was passaged by 1:2 dilution, the cell concentration for the test was 5-10×10^5 /mL. • 2) Dissolution and dilution of compounds: according to the weight and molecular weight of the drugs provided, 100-200 μL of DMSO was added. Then normal saline was added to make the final diluted concentration of the drugs be 5 mM (Note that the final concentration of DMSO should not be more than 10%). • 3) D-MEM or RPMI 1640 cell culture medium, Gibco, Inc. • 4) Fetal calf serum Hyclone, Inc. • 5) Cell dissociation buffer, 0.25% Trypsin+0.02% EDTA. • 6) MTT solution, MTT Powder (Sigma) were dissolved in PBS buffer solution to make a solution of 5 mg/mL. The solution was filtered by a 0.22 μm micropore membrane and stored at −20° C. • 7) PBS buffer solution. • 8) 10% acidified SDS, 0.01N HCl. • 9) Centrifuge tubes, haustorial tubes etc. (BD, Inc.); 96-well plates (Costatr, Inc.) Procedures: • 1) Cell inoculation: Cells grown for 24 hours after passage, which cells were in good growth state, were used. The cells were harvested by the routine method. The cell concentration was adjust with a fresh culture solution to 2×10^5/mL (for adherent cells)-3×10^5/mL (for suspension cells). The adherent cells were inoculated at 100 μL/well and then cultivated in an incubator with 5% CO2 at 37° C. for 24 h. Thereafter the used culture solution was removed and 95 μL/well of fresh culture solution was added. The suspension cells were inoculated at 95 μL/well directly. • 2) Drugs treatment: 9 concentration grades were designed for every drug, and every concentration had 3 wells. The control group had 5 wells. The control group was tested simultaneously in each test. The final concentrations of a drug added were […], and 5 μL normal saline was added to the control group. • 3) Cell culture and detection: the cells were cultured in an incubator with 5% CO2 at 37° C. for 72 h after the drug was added, then 10 μL MTT was added to each well and the culture was continued for 4 h. 100 μL of 10% SDS (containing 0.01N HCl) was added to each well. After 24 h, the absorbance (A) of each well was determined by Bio-rad 680 ELISA with the detection wavelength of 570 nm and the reference wavelength of 630 nm. Calculation:
(§3) First, the absorbance (A) of each well was averaged (removing any data with big difference). […] A0 was the mean absorbance of the control wells. The effect curve of the drug concentration was drawn using EXCEL software and the drug concentration for 50% cell survival was calculated according to an appropriate computing methods.

In data set [2] the test system is HT29: a human colon cancer cell line. The data set can be described thus: MTT analytical method, HT29 cells. Conditions: HT-29, 72 h. It counts as cell-based.
Source text: as §1, §2, §3
In general terms: Tetrazolium assays rely on reduction of a dye to a coloured formazan, in cell work by metabolically active cells.

Data set [3] has as its system A549: a human lung cancer cell line. Put plainly: MTT analytical method, A549 cells. Format: cell-based. The following applies: 72 h.
Source text: as §1, §2, §3

Data set [4] concerns H460 cells, a human lung cancer cell line, inoculated in nude mice. The data set can be described thus: H460 tumor in nude mice, oral administration of SL-01. It counts as in vivo, Balb/c female nude mice. Conditions: for Mean Volume of Tumor: Ftorafur 120 mg/kg gastric gavage. The method, then:
1. […] Suspension formulation was prepared using 2.5% starch for intragastric administration. […] In the test, it was dissolved in normal saline and filtered with microfiltration membrane and administrated by tail vein injection. Positive control drug: Ftorafur (FT-207) produced by Qilu Pharmaceutical Co. Ltd., oral formulation.
2. Experimental animals: 50 Balb/c female nude mice at 4-5 weeks old, purchased from Peking University Health Science Center.
1. Culture of tumor cells: H460 cells were cultured in an incubator with 5% CO2 at 37° C. using RPMI-1640 nutrient solution containing 10% fetal calf serum. The cells were passaged through routine method.
2.2 Method of inoculating tumor cells in nude mice: cells were collected when they grew to about […] in culture flasks. Cells were washed twice with PBS before they were digested, then 1.5 mL of digestion solution juices was added into every bottle. They were observed under a microscope and the digestion was terminated after the cells were shed. Cell suspension was collected into 50 mL of centrifugal tube and centrifuged and washed twice with PBS. It was counted and suspended with 10 mL of normal saline to get the tumor cell suspension of inoculated nude mice. The tumor cells (1×10^7/0.2 mL) were inoculated in the left front armpits of mice. The tumor growth was observed after the inoculation.
4. Evaluation protocols for drug treating effect: these mice were weighed before drug administration and every week thereafter. The long tumor pathline (a) and the short tumor pathline (b) were measured at the same time. The formula for calculating the tumor volume is V=(a×b^2)/2. Mice were euthanized after drug administration for 3 weeks. The tumor was taken out and weighed. […] W was the tumor weight of the treatment group.

The IC50 is the midpoint of a concentration-inhibition curve. Low readings indicate greater potency, high ones weaker potency.

Turning to `CCCCCCCCCCCCOC(=O)c1ccccc1C(=O)Nc1ccn([C@@H]2O[C@H](CO)[C@@H](O)C2(F)F)c(=O)n1` [Compound 1, Dodecyl-2-((1-((2R,4R,5R)-3,3-difluoro-4-hydroxy-5-(hydroxymethyl)-tetrahydrofuran-2-yl)-2-oxo-1,2-dihydropyrimidin-4-yl)carbamoyl)benzoate], the results for the IC50 in data set [1], in data set [2] and in data set [3] were 20 µM, 13 µM and 23 µM, respectively.
Take `CCCCCCCCCCCOC(=O)c1ccccc1C(=O)Nc1ccn([C@@H]2O[C@H](CO)[C@@H](O)C2(F)F)c(=O)n1` [Compound 2, Undecyl-2-((1-((2R,4R,5R)-3,3-difluoro-4-hydroxy-5-(hydroxymethyl)-tetrahydrofuran-2-yl)-2-oxo-1,2-dihydropyrimidin-4-yl)carbamoyl)benzoate]: the IC50 in data set [1] was 162 µM; in data set [2] it was over 200 µM.
On to `CCCCCCCCCCCCCCCCOC(=O)c1ccccc1C(=O)Nc1ccn([C@@H]2O[C@H](CO)[C@@H](O)C2(F)F)c(=O)n1` [Compound 3, Hexadecyl-2-((1-((2R,4R,5R)-3,3-difluoro-4-hydroxy-5-(hydroxymethyl)-tetrahydrofuran-2-yl)-2-oxo-1,2-dihydropyrimidin-4-yl)carbamoyl)benzoate], for which the IC50 in data set [1] came to 60 µM; in data set [2] it was 10 µM.
In the case of `CCCCCCCCCCOC(=O)c1cccc(C(=O)Nc2ccn([C@@H]3O[C@H](CO)[C@@H](O)C3(F)F)c(=O)n2)c1` [Compound 6, Decyl-3-((1-((2R,4R,5R)-3,3-difluoro-4-hydroxy-5-(hydroxymethyl)-tetrahydrofuran-2-yl)-2-oxo-1,2-dihydropyrimidin-4-yl)carbamoyl)benzoate], the IC50 in data set [1] was 30 µM; in data set [2] it was 13 µM.
With `CCCCCCCCCCCOC(=O)c1cccc(C(=O)Nc2ccn([C@@H]3O[C@H](CO)[C@@H](O)C3(F)F)c(=O)n2)c1` [Compound 7, Undecyl-3-((1-((2R,4R,5R)-3,3-difluoro-4-hydroxy-5-(hydroxymethyl)-tetrahydrofuran-2-yl)-2-oxo-1,2-dihydropyrimidin-4-yl)carbamoyl)benzoate], the IC50 was found to be 125 µM in data set [1] and 80 µM in data set [2].
With `CCCCCCCCCCCOC(=O)c1ccc(C(=O)Nc2ccn([C@@H]3O[C@H](CO)[C@@H](O)C3(F)F)c(=O)n2)nc1` [Compound 10, Undecyl-6-((1-((2R,4R,5R)-3,3-difluoro-4-hydroxy-5-(hydroxymethyl)-tetrahydrofuran-2-yl)-2-oxo-1,2-dihydropyrimidin-4-yl)carbamoyl)nicotinate], the IC50 was 30 µM in data set [1], 4 µM in data set [2] and 13 µM in data set [3].
Taken in the same sequence, the figures for `CCCCCCCCCCCOC(=O)c1ccc(C(=O)Nc2ccn([C@@H]3O[C@H](CO)[C@@H](O)C3(F)F)c(=O)n2)cn1` [Compound 11, Undecyl-5-((1-((2R,4R,5R)-3,3-difluoro-4-hydroxy-5-(hydroxymethyl)-tetrahydrofuran-2-yl)-2-oxo-1,2-dihydropyrimidin-4-yl)carbamoyl)picolinate] were 4 µM, under 2 µM and 3 µM.
For `CCCCCCCCCCCCOC(=O)c1ncccc1C(=O)Nc1ccn([C@@H]2O[C@H](CO)[C@@H](O)C2(F)F)c(=O)n1` [Compound 12, Dodecyl-3-((1-((2R,4R,5R)-3,3-difluoro-4-hydroxy-5-(hydroxymethyl)-tetrahydrofuran-2-yl)-2-oxo-1,2-dihydropyrimidin-4-yl)carbamoyl)picolinate], the IC50 in data set [1] turned out to be 60 µM; in data set [2] it was 20 µM.
Consider `CCCCCCCCCCCOC(=O)c1cccnc1C(=O)Nc1ccn([C@@H]2O[C@H](CO)[C@@H](O)C2(F)F)c(=O)n1` [Compound 14, Undecyl-2-((1-((2R,4R,5R)-3,3-difluoro-4-hydroxy-5-(hydroxymethyl)-tetrahydrofuran-2-yl)-2-oxo-1,2-dihydropyrimidin-4-yl)carbamoyl)nicotinate], for which the IC50 in data set [1] is over 200 µM; in data set [2], 35 µM; in data set [3], 140 µM.
For the compound `CCCCCCCCCCCCOC(=O)c1cccc(C(=O)Nc2ccn([C@@H]3O[C@H](CO)[C@@H](O)C3(F)F)c(=O)n2)n1` [Compound 18, Dodecyl-6-((1-((2R,4R,5R)-3,3-difluoro-4-hydroxy-5-(hydroxymethyl)-tetrahydrofuran-2-yl)-2-oxo-1,2-dihydropyrimidin-4-yl)carbamoyl)picolinate], the IC50 turned out to be 16 µM in data set [1], 7 µM in data set [2] and 15 µM in data set [3].
For the compound `CCCCCCCCCCCOC(=O)c1cccc(C(=O)Nc2ccn([C@@H]3O[C@H](CO)[C@@H](O)C3(F)F)c(=O)n2)n1` [Compound 19, Undecyl-6-((1-((2R,4R,5R)-3,3-difluoro-4-hydroxy-5-(hydroxymethyl)-tetrahydrofuran-2-yl)-2-oxo-1,2-dihydropyrimidin-4-yl)carbamoyl)picolinate], the IC50 in data set [1] is 46 µM; in data set [2], 25 µM.
As for `CCCCCCCCCCCOC(=O)c1ccc(C(=O)Nc2ccn([C@@H]3O[C@H](CO)[C@@H](O)C3(F)F)c(=O)n2)s1` [Compound 21, Undecyl-5-((1-((2R,4R,5R)-3,3-difluoro-4-hydroxy-5-(hydroxymethyl)-tetrahydrofuran-2-yl)-2-oxo-1,2-dihydropyrimidin-4-yl)carbamoyl)thiophene-2-carboxylate], the IC50 turned out to be 43 µM in data set [1] and 24 µM in data set [2].
On to `CCCCCCCCCCCOC(=O)C1CCCCC1C(=O)Nc1ccn([C@@H]2O[C@H](CO)[C@@H](O)C2(F)F)c(=O)n1` (stereo partly drawn) [Compound 36, Undecyl-2-((1-((2R,4R,5R)-3,3-difluoro-4-hydroxy-5-(hydroxymethyl)-tetrahydrofuran-2-yl)-2-oxo-1,2-dihydropyrimidin-4-yl)carbamoyl)cyclohexanecarboxylate], for which the IC50 in data set [1] and in data set [2] was over 200 µM each time.
In the case of `O=c1[nH]c(=O)n(C2CCCO2)cc1F` (stereo not drawn) [FT-207, Ftorafur, reference compound], the “Mean Volume of Tumor” value in data set [4] (day 7) was 756.7 mm^3; in data set [4] (day 14), 1347.0 mm^3; in data set [4] (day 18), 1526.3 mm^3; in data set [4] (day 22), 1779.4 mm^3. Also, the “Inhibition ratio (tumor weight)” value in data set [4] (Positive control (Ftorafur 120 mg/kg gavage)) amounted to 38.5%. Also, the “Mean Weight of Nude Mice” value in data set [4] (Positive control (Ftorafur 120 mg/kg gavage), day 0) stood at 19.3 g; in data set [4] (Positive control (Ftorafur 120 mg/kg gavage), day 7), 19.5 g; in data set [4] (Positive control (Ftorafur 120 mg/kg gavage), day 14), 19.8 g; in data set [4] (Positive control (Ftorafur 120 mg/kg gavage), day 22), 19.7 g. Further, the “Tumor Weight, Average Value” in data set [4] (Positive control (Ftorafur 120 mg/kg gavage), end of the experiment) turned out to be 1.26 g. Further, the “efficacy by t-test, in words” value in data set [4] (positive control group (Ftorafur 120 mg/kg gavage)) is “significant efficacy”.
